Target: Acetylcholinesterase (Electrophorus electricus, UniProt O42275)
Experiment: Compound was evaluated for inhibitory constant for the electric eel Acetylcholinesterase (AChE)

Acetylcholinesterase, sequence (O42275 whole entry): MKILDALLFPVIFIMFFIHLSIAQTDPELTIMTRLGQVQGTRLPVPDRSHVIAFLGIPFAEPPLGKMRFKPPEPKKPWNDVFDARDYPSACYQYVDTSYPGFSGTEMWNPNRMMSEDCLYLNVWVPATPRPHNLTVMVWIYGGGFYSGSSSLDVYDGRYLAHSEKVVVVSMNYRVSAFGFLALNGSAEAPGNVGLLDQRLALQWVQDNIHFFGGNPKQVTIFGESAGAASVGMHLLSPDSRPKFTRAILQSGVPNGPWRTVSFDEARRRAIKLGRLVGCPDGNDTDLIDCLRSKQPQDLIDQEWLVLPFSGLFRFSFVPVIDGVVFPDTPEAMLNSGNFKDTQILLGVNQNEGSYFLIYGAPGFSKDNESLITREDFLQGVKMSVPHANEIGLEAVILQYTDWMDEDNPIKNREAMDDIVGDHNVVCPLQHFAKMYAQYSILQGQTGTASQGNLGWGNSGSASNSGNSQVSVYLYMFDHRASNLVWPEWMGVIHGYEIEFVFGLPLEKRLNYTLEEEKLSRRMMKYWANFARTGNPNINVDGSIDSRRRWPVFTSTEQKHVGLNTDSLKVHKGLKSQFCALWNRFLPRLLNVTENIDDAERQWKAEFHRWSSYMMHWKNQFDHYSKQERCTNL

SMILES	Ki (tested as the Zn salt or complex) [nM]	Ki [nM]
C1=Cc2nc1c(-c1ccccc1)c1ccc([nH]1)c(-c1ccccc1)c1nc(c(-c3ccccc3)c3ccc([nH]3)c2-c2ccccc2)C=C1	5390	–
Fc1cccc(F)c1-c1c2nc(c(-c3c(F)cccc3F)c3ccc([nH]3)c(-c3c(F)cccc3F)c3ccc([nH]3)c(-c3c(F)cccc3F)c3nc1C=C3)C=C2	–	12
Fc1ccc(-c2c3nc(c(-c4ccc(F)cc4F)c4ccc([nH]4)c(-c4ccc(F)cc4F)c4ccc([nH]4)c(-c4ccc(F)cc4F)c4nc2C=C4)C=C3)c(F)c1	–	5

Reference: ChEMBL document CHEMBL1130833, “Inhibition of electric eel acetylcholinesterase by porphin compounds” (Bioorg Med Chem Lett, 1998)
